Reference: ChEMBL document CHEMBL6078655, “Engineering of Novel Analogues That Are More Receptor-Selective and Potent than the Native Hormone, Insulin-like Peptide 5 (INSL5)” (J Med Chem, 2024)
The source made the active and inactive calls. No cut-off for these calls is given here. Where a SMILES comes first, the peptide text is derived from it. Bridges are numbered along the chain shown (N, C = ends). Roman numbers before positions name the chains, in order. [ ]: non-standard residue; d: D form. Agb = N=C(N)NCC[C@H](N)C(=O)O

What was measured:
Relaxin-3 receptor 2 [1] = molecular target: T1, Relaxin-3 receptor 2 (Homo sapiens, UniProt Q8TDU9); experiment: Binding affinity to LgBiT-tagged RXFP4 (unknown origin) expressed in HEK cells assessed as inhibition constant incubated for 1 hr by NanoBiT assay; assay type: cell-based
T1 sequence (Q8TDU9 whole entry): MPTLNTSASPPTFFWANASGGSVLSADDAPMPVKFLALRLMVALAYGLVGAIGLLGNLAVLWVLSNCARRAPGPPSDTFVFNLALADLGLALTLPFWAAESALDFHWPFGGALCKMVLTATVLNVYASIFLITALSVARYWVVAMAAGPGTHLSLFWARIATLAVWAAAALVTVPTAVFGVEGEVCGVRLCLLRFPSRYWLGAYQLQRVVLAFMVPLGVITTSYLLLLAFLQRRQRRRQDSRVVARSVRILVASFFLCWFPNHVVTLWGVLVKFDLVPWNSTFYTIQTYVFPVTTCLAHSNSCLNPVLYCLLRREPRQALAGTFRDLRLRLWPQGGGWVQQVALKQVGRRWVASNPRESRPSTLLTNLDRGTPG

Relaxin-3 receptor 2 [2] = molecular target: T1, Relaxin-3 receptor 2; experiment: Agonist activity at RXFP4 (unknown origin) expressed in CHO cells co-transfected with pCRE-galactosidase reporter plasmid assessed as inhibition of forskolin-induced cAMP accumulation incubated for 6 hrs by reporter gene assay; assay type: functional, cell-based
Relaxin-3 receptor 1 [3] = molecular target: T2, Relaxin-3 receptor 1 (Homo sapiens, UniProt Q9NSD7); experiment: Binding affinity to SmBit-tagged RXFP3 (unknown origin) expressed in HEK cells assessed as inhibition constant incubated for 1 hr by NanoBiT assay; assay type: cell-based; conditions: read-out: Ki
T2 sequence (Q9NSD7 whole entry): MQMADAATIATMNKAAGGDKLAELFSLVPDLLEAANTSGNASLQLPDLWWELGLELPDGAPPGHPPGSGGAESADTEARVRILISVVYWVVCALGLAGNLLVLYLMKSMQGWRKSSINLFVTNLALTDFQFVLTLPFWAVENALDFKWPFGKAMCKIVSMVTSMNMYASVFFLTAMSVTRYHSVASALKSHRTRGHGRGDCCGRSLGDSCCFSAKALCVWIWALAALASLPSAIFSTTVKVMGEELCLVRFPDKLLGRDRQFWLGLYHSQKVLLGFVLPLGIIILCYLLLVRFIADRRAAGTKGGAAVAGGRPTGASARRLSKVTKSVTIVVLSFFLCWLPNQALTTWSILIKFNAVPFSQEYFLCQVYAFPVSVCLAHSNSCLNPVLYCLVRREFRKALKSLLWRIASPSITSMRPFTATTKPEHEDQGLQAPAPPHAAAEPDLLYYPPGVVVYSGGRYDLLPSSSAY

Relaxin-3 receptor 1 [4] = molecular target: T2, Relaxin-3 receptor 1; experiment: (§1) Agonist activity at RXFP3 (unknown origin) expressed in CHO cells co-transfected with pCRE-galactosidase reporter plasmid assessed as inhibition of forskolin-induced cAMP accumulation incubated for 6 hrs by reporter gene assay; assay type: functional, cell-based; conditions: read-out: EC50
[5] = Selectivity index, ratio of Ki for binding affinity to SmBit-tagged RXFP3 (unknown origin) expressed in HEK cells assessed as inhibition constant to Ki for binding affinity to LgBiT-tagged RXFP4 (unknown origin) expressed in HEK cells assessed as inhibition constant; assay type: cell-based
[6] = molecular target: T3, Relaxin-3 receptor 1 (Homo sapiens) (UniProt Q9NSD7); experiment: as §1; assay type: functional, cell-based
T3 sequence (whole entry): T2 sequence (Q9NSD7 whole entry)

| Ki (Relaxin-3 receptor 2 [1]) [nM] | EC50 (Relaxin-3 receptor 2 [2]; read-out: EC50) [nM] | EC50 (Relaxin-3 receptor 2 [2]; read-out: pEC50 (converted)) [nM] | Ki (Relaxin-3 receptor 1 [3]) [nM] | EC50 (Relaxin-3 receptor 1 [4]) [nM] | Activity [6] | SMILES | Ratio Ki [5] |
| --- | --- | --- | --- | --- | --- | --- | --- |
| 14.1 | > 100000 | > 10000 | – | – | – | CC[C@H](C)[C@@H]1NC(=O)[C@H](Cc2ccc(O)cc2)NC(=O)[C@H]([C@@H](C)CC)NC(=O)[C@H](C(C)C)NC(=O)[C@H]([C@@H](C)O)NC(=O)[C@H](CCCNC(=N)N)NC(=O)[C@H]([C@@H](C)CC)NC(=O)[C@H](Cc2ccc(O)cc2)NC(=O)[C@H](CCC(=O)O)NC(=O)[C@H](CC(C)C)NC(=O)CNC(=O)[C@@H](NC(=O)[C@H](CC(C)C)NC(=O)[C@H](CCCNC(=N)N)NC(=O)[C@@H](NC(=O)[C@H](CO)NC(=O)[C@H](CCC(=O)O)NC(=O)[C@@H](N)CCCCN)C(C)C)CSSC[C@H](N)C(=O)N[C@@H]([C@@H](C)O)C(=O)N[C@@H](CC(=O)O)C(=O)NCC(=O)N[C@@H](C)C(=O)N[C@@H](CO)C(=O)N[C@@H](CCSC)C(=O)N[C@@H](CCCCN)C(=O)N[C@@H](CC(=O)O)C(=O)N[C@@H](CC(C)C)C(=O)N[C@@H](CO)C(=O)N[C@@H](C)C(=O)N[C@@H](CC(C)C)C(=O)N[C@H](C(=O)O)CSSC[C@@H](C(=O)N[C@@H](C)C(=O)N[C@@H](CO)C(=O)N[C@@H](CO)C(=O)N[C@@H](CCNC(=N)N)C(=O)N[C@@H](Cc2c[nH]c3ccccc23)C(=O)O)NC1=O (I: H-KESVRLCGLEYIRTVIYICASS[Agb]W-OH / II: H-CTDGASMKDLSALC-OH; disulfide I:7-II:1, I:19-II:14) | – |
| 4.68 | 1.66 | – | 75.9 | 155 | – | CC[C@H](C)[C@@H]1NC(=O)[C@H](Cc2ccc(O)cc2)NC(=O)[C@H]([C@@H](C)CC)NC(=O)[C@H](C(C)C)NC(=O)[C@H]([C@@H](C)O)NC(=O)[C@H](CCCNC(=N)N)NC(=O)[C@H]([C@@H](C)CC)NC(=O)[C@H](Cc2ccc(O)cc2)NC(=O)[C@H](CCC(=O)O)NC(=O)[C@H](CC(C)C)NC(=O)CNC(=O)[C@@H](N)CSSC[C@H](N)C(=O)N[C@@H]([C@@H](C)O)C(=O)N[C@@H](CC(=O)O)C(=O)NCC(=O)N[C@@H](CS)C(=O)N[C@H](CO)C(=O)N[C@@H](CCSC)C(=O)N[C@@H](CCCCN)C(=O)N[C@@H](CC(=O)O)C(=O)N[C@@H](CC(C)C)C(=O)N[C@@H](CO)C(=O)N[C@@H](C)C(=O)N[C@@H](CC(C)C)C(=O)N[C@H](C(=O)O)CSSC[C@@H](C(=O)NCC(=O)N[C@@H](C)C(=O)N[C@@H](CO)C(=O)N[C@@H](CCCNC(=N)N)C(=O)N[C@@H](Cc2c[nH]c3ccccc23)C(=O)O)NC1=O | 16.2 |
| 11.2 | 17.8 | – | 589 | – | inactive | CC[C@H](C)[C@@H]1NC(=O)[C@H](Cc2ccc(O)cc2)NC(=O)[C@H]([C@@H](C)CC)NC(=O)[C@H](C(C)C)NC(=O)[C@H]([C@@H](C)O)NC(=O)[C@H](CCCNC(=N)N)NC(=O)[C@H]([C@@H](C)CC)NC(=O)[C@H](Cc2ccc(O)cc2)NC(=O)[C@H](CCC(=O)O)NC(=O)[C@H](CC(C)C)NC(=O)CNC(=O)[C@@H](N)CSSC[C@H](N)C(=O)N[C@@H]([C@@H](C)O)C(=O)N[C@@H](CC(=O)O)C(=O)NCC(=O)N[C@@H](CS)C(=O)N[C@H](CO)C(=O)N[C@@H](CCSC)C(=O)N[C@@H](CCCCN)C(=O)N[C@@H](CC(=O)O)C(=O)N[C@@H](CC(C)C)C(=O)N[C@@H](CO)C(=O)N[C@@H](C)C(=O)N[C@@H](CC(C)C)C(=O)N[C@H](C(=O)O)CSSC[C@@H](C(=O)N[C@@H](C)C(=O)NCC(=O)N[C@@H](CO)C(=O)N[C@@H](CCCNC(=N)N)C(=O)N[C@@H](Cc2c[nH]c3ccccc23)C(=O)O)NC1=O | 52.5 |
